Measured values from patent US9533978B2 (AstraZeneca AB, priority 2009, dated 2017).
Where a name gives a salt, the structure may show the parent alone.

Biological target: T1, Recombinant human TLR7 (Homo sapiens, UniProt Q9NYK1)
T1 construct: expressed in transfected cells; host or cells: HEK293 cell line stably expressing the pNiFty2-SEAP reporter plasmid; TLR7 in vector pUNO, blasticidin selection
T1 sequence (Q9NYK1 27-1049): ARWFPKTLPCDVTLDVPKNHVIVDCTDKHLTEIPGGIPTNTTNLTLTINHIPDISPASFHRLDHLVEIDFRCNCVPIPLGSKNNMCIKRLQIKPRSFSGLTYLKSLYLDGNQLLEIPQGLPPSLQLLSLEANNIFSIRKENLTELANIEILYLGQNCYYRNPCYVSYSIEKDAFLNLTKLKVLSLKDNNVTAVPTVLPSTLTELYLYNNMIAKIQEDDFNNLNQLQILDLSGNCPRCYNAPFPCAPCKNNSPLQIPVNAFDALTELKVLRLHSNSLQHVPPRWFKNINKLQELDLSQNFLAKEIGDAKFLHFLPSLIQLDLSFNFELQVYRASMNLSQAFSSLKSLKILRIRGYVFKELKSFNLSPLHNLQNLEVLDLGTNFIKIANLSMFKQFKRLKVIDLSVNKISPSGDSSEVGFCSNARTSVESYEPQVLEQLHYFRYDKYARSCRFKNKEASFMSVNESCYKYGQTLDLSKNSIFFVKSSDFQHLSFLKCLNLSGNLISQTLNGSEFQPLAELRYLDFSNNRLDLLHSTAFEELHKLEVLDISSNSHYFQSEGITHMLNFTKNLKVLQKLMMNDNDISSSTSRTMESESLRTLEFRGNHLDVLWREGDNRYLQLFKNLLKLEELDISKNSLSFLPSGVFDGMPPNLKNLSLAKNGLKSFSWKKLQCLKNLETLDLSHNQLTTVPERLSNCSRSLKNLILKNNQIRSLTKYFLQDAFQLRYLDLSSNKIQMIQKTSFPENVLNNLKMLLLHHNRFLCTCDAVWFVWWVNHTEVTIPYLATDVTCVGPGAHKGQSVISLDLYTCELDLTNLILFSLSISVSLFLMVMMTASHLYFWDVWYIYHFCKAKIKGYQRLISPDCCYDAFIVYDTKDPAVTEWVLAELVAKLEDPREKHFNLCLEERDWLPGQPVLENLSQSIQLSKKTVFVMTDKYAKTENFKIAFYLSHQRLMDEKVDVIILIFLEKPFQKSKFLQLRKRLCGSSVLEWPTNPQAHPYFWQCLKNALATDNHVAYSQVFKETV
Assay: Human TLR7 assay (HEK293 SEAP reporter)
Type: cell-based
Details: degree of TLR7 activation; SEAP induction in HEK293 cells stably expressing recombinant human TLR7 and pNiFty2-SEAP reporter, overnight incubation at 37° C., 0.1% (v/v) DMSO
Method: The ability of compounds to activate TLR7 in vitro was assessed using the human TLR7 assay described below.
Recombinant human TLR7 was stably expressed in a HEK293 cell line already stably expressing the pNiFty2-SEAP reporter plasmid; integration of the reporter gene was maintained by selection with the antibiotic zeocin. The most common variant sequence of human TLR7 (represented by the EMBL sequence AF240467) was cloned into the mammalian cell expression vector pUNO and transfected into this reporter cell-line. Transfectants with stable expression were selected using the antibiotic blasticidin. In this reporter cell-line, expression of secreted alkaline phosphatase (SEAP) is controlled by an NFkB/ELAM-1 composite promoter comprising five NFkB sites combined with the proximal ELAM-1 promoter. TLR signaling leads to the translocation of NFkB and activation of the promoter results in expression of the SEAP gene. TLR7-specific activation was assessed by determining the level of SEAP produced following overnight incubation of the cells at 37° C. with the standard compound in the presence of 0.1% (v/v) dimethylsulfoxide (DMSO). Concentration dependent induction of SEAP production by compounds was expressed as the concentration of compound which produced half of the maximal level of SEAP induction for that compound (EC50).

| EC50 | pEC50 | Compound |
| --- | --- | --- |
| 63.1 nM | – | CCCCCNc1nc(N)nc(C)c1Cc1ccccc1OC [Example 19, 5-(2-Methoxybenzyl)-6-methyl-N4-pentylpyrimidine-2,4-diamine] |
| 100 nM | – | CCC[C@@H](CO)Nc1nc(N)nc(C)c1Cc1ccc(C(=O)OC)cc1OC [Example 13, (S)-Methyl 4-((2-amino-4-(1-hydroxypentan-2-ylamino)-6-methyl-pyrimidin-5-yl)methyl)-3-methoxybenzoate] |
| 316 nM | – | COC(=O)Cc1cccc([C@@H](CCO)Nc2nc(N)nc(C)c2Cc2ccc(OCCCN(C)C)cc2OC)c1 [Example 35, (R)-Methyl 2-(3-(1-(2-amino-5-(4-(3-(dimethylamino)propoxy)-2-methoxybenzyl)-6-methylpyrimidin-4-ylamino)-3-hydroxypropyl)phenyl)acetate] |
| 126 nM | – | CCCCCNc1nc(N)nc(C)c1Cc1ccccc1O [Example 20, 2-((2-Amino-4-methyl-6-(pentylamino)pyrimidin-5-yl)methyl)phenol] |
| 6.31 nM | – | CCCCCNc1nc(N)nc(C)c1Cc1ccc(OCCCN2CCN(C)CC2)cc1OC [Example 38, 5-(2-Methoxy-4-(3-(4-methylpiperazin-1-yl)propoxy)benzyl)-6-methyl-N^4-pentylpyrimidine-2,4-diamine] |
| 50.1 nM | – | CCCCCNc1nc(N)nc(C)c1Cc1ccc(OCCCO)cc1OC [Example 36, 3-(4-((2-Amino-4-methyl-6-(pentylamino)pyrimidin-5-yl)methyl)-3-methoxyphenoxy)propan-1-ol] |
| 2000 nM | – | COC(=O)Cc1cccc([C@@H](CCO)Nc2nc(N)nc(C)c2Cc2ccc(OCCCN(C)C)cc2)c1 [Example 34, (R)-Methyl 2-(3-(1-(2-amino-5-(4-(3-(dimethylamino)propoxy)benzyl)-6-methylpyrimidin-4-ylamino)-3-hydroxypropyl)phenyl)acetate] |
| 100 nM | – | CCCCCNc1nc(N)nc(C)c1Cc1ccc(C#CCN(C)C)cc1 [Example 30, 5-(4-(3-(Dimethylamino)prop-1-ynyl)benzyl)-6-methyl-N4-pentyl-pyrimidine-2,4-diamine] |
| 63.1 nM | – | CCCCCNc1nc(N)nc(C)c1Cc1ccc(OCCCN2CCCC2)cc1 [Example 9, 6-Methyl-N^4-pentyl-5-(4-(3-(pyrrolidin-1-yl)propoxy)benzyl)pyrimidine-2,4-diamine] |
| 316 nM | – | CCCCCNc1nc(N)nc(C)c1Cc1cccc(CN(C)C)c1 [Example 29, 5-(3-((Dimethylamino)methyl)benzyl)-6-methyl-N^4-pentylpyrimidine-2,4-diamine] |
| 3160 nM | – | CCCCCNc1nc(N)nc(C)c1Cc1cc(C(=O)OC)ccc1F [Example 17, Methyl 3-((2-amino-4-methyl-6-(pentylamino)pyrimidin-5-yl)methyl)-4-fluorobenzoate] |
| 63.1 nM | – | CCCCCNc1nc(N)nc(C)c1Cc1ccc(C(=O)OC)cc1OC [Example 12, Methyl 4-((2-amino-4-methyl-6-(pentylamino)pyrimidin-5-yl)methyl)-3-methoxybenzoate] |
| 63.1 nM | – | CCCCCNc1nc(N)nc(C)c1Cc1ccc(OCCCN(C)C)cc1 [Example 4] |
| 631 nM | – | CCCCCNc1nc(N)nc(C)c1Cc1ccc(OCCN(C)Cc2ccccc2)cc1 [Example 7, 5-(4-(2-(Benzyl(methyl)amino)ethoxy)benzyl)-6-methyl-N^4-pentyl-pyrimidine-2,4-diamine] |
| 5010 nM | – | CCCCCNc1nc(N)nc(C)c1Cc1cccc(O)c1 [Example 24, 3-((2-Amino-4-methyl-6-(pentylamino)pyrimidin-5-yl)methyl)phenol] |
| 10 nM | – | CCCC[C@@H](CCO)Nc1nc(N)nc(C)c1Cc1ccc(C(=O)OC)cc1OC [Example 14, (S)-Methyl 4-((2-amino-4-(1-hydroxyheptan-3-ylamino)-6-methyl-pyrimidin-5-yl)methyl)-3-methoxybenzoate] |
| – | 7.2 | 5-(4-(2-(Dimethylamino)ethoxy)benzyl)-6-methyl-N-pentylpyrimidine-2,4-diamine [Example 3] |

| EC50 | pEC50 | Compound |
| --- | --- | --- |
| 20 nM | – | CCC[C@@H](CO)Nc1nc(N)nc(C)c1Cc1ccc(CO)cc1OC [Example 40, (S)-2-(2-Amino-5-(4-(hydroxymethyl)-2-methoxybenzyl)-6-methyl-pyrimidin-4-ylamino)pentan-1-ol] |
| 3.98 nM | – | CCCCCNc1nc(N)nc(C)c1Cc1ccc(CCCCN(C)C)cc1OC [Example 39, 5-(4-(4-(Dimethylamino)butyl)-2-methoxybenzyl)-6-methyl-N^4-pentylpyrimidine-2,4-diamine] |
| 100 nM | – | CCCCCNc1nc(N)nc(C)c1Cc1ccc(OCCN2CCCC2)cc1 [Example 6, 6-Methyl-N^4-pentyl-5-(4-(2-(pyrrolidin-1-yl)ethoxy)benzyl)pyrimidine-2,4-diamine] |
| 126 nM | – | CCC[C@@H](CO)Nc1nc(N)nc(C)c1Cc1ccc(C(=O)OCCCCN(C)C)cc1OC [Example 15, (S)-4-(Dimethylamino)butyl 4-((2-amino-4-(1-hydroxypentan-2-yl-amino)-6-methylpyrimidin-5-yl)methyl)-3-methoxybenzoate benzenesulfonate salt] |
| 1260 nM | – | CCCCCNc1nc(N)nc(C)c1Cc1cccc(OCCN2CCCC2)c1 [Example 28, 6-Methyl-N^4-pentyl-5-(3-(2-(pyrrolidin-1-yl)ethoxy)benzyl)pyrimidine-2,4-diamine] |
| 2000 nM | – | CCCCCNc1nc(N)nc(C)c1Cc1ccc(C(=O)OC)cc1F [Example 18, Methyl 4-((2-amino-4-methyl-6-(pentylamino)pyrimidin-5-yl)methyl)-3-fluorobenzoate] |
| 398 nM | – | CCCCCNc1nc(N)nc(C)c1Cc1cccc(OCCN(C)C)c1 [Example 27, 5-(3-(2-(Dimethylamino)ethoxy)benzyl)-6-methyl-N^4-pentylpyrimidine-2,4-diamine] |
| 100 nM | – | CCCCCNc1nc(N)nc(C)c1Cc1ccc(CCCN(C)C)cc1 [Example 31, 5-(4-(3-(Dimethylamino)propyl)benzyl)-6-methyl-N^4-pentylpyrimidine-2,4-diamine] |
| 316 nM | – | CCCCCNc1nc(N)nc(C)c1Cc1ccccc1OCC [Example 21, 5-(2-Ethoxybenzyl)-6-methyl-N^4-pentylpyrimidine-2,4-diamine] |
| 7.94 nM | – | CCCCCNc1nc(N)nc(C)c1Cc1ccc(OCCCN2CCOCC2)cc1OC [Example 37, 5-(2-Methoxy-4-(3-morpholinopropoxy)benzyl)-6-methyl-N^4-pentylpyrimidine-2,4-diamine] |
| 251 nM | – | CCCCCNc1nc(N)nc(C)c1Cc1ccc(OCCCN(C)C)cc1C [Example 33, 5-(4-(3-(Dimethylamino)propoxy)-2-methylbenzyl)-6-methyl-N^4-pentylpyrimidine-2,4-diamine] |
| 2510 nM | – | CCCCCNc1nc(N)nc(C)c1Cc1cccc(OC)c1 [Example 23, 5-(3-Methoxybenzyl)-6-methyl-N4-pentylpyrimidine-2,4-diamine] |
| 631 nM | – | CCCCCNc1nc(N)nc(C)c1Cc1cccc(OCCN2CCCCC2)c1 [Example 26, 6-Methyl-N^4-pentyl-5-(3-(2-(piperidin-1-yl)ethoxy)benzyl)pyrimidine-2,4-diamine] |
| 2000 nM | – | CCCCCNc1nc(N)nc(C)c1Cc1ccc(OC)cc1 [Example 1, 5-(4-Methoxybenzyl)-6-methyl-N^4-pentylpyrimidine-2,4-diamine] |
| 251 nM | – | CCCCCNc1nc(N)nc(C)c1Cc1cccc(CCCN(C)C)c1 [Example 32, 5-(3-(3-(Dimethylamino)propyl)benzyl)-6-methyl-N^4-pentylpyrimidine-2,4-diamine] |
| 1260 nM | – | CCCCCNc1nc(N)nc(C)c1Cc1ccc(O)cc1 [Example 2, 4-(2-Amino-4-methyl-6-pentylamino-pyrimidin-5-ylmethyl)-phenol] |
